Reference: patent US5200426A, “Inhibitors of neutral endopeptidase/CALLA as chemotherapeutic agents” (Board of Regents, The University of Texas, priority 1990, dated 1993)
pKi: −log10 of the molar value. Entries after “also recorded” stand apart in the source; their conditions may differ. Square brackets hold non-standard residues; d marks the D form. Peptide text beside a SMILES is read from it. * marks the point of attachment. BrAc = O=C(CBr)*

Experiments:
[1] = test system: neutral endopeptidase 24.11 (NEP); assay: Affinity labelling / irreversible inactivation of NEP; type: biochemical
Description: (§1) The efficacy of endopeptidase inhibitors may be assessed by determining cell numbers and the percent of viable cells (e.g., assessed by trypan blue exclusion) as a function of time in culture in the presence and absence of the endopeptidase inhibitors. In addition the level of neutral endopeptidase activity will be measured and correlated with these parameters. Since the enzyme is on the cell surface its activity can be measured by simply adding substrate to the cell culture. The kinetics of inactivation of purified enzyme can also be assessed. A graphical analysis of the inactivation constant (kobs) versus the inhibitor concentration can be plotted. If the inhibitor binds to the active site of the enzyme this graph should be hyperbolic. The data can then be analyzed in a double reciprocal plot of 1/kobs versus 1/[Inhibitor]. This should yield a straight line from which the dissociation constant for the inhibitor (Ki) and the maximal rate of inactivation k(inact) can be obtained. […] This type of analysis has previously been conducted to characterize the reaction of both phenylglyoxal and N-bromoacetyl-D-Leu-Gly with the enzyme.

[2] = test system: Nall-1 cells (CALLA+ human leukemic cell line); assay: Growth of Nall-1 cells (viable cell counts daily); type: cell-based; settings: nanomolar to micromolar concentrations; FIG. 2
Description: FIG. 2--Effect of NEP Inhibitors on the Growth of Nall-1 and SMS-SB Cell Lines. The NEP inhibitors phosphoramidon (10 nM) and carboxyphenylethyl-Phe-β-Ala(10 μM) were added to cells plated at a density of 200,000 cells/ml. The inhibitors were added either once on Day 0 as a bolus (closed circle and square) or daily (open circle or triangle). The number of viable cells was determined daily. […] Nalm-6 and Nall-1 are leukemic cell lines generally representative of CALLA+ lymphoblastic leukemias. […] The number of viable cells was determined daily. In FIG. 2, the NEP inhibitors phosphoramidon (PA;10 nM) and carboxyphenylethyl-Phe-β-Ala (10 μM) were added to Nall-1 and, in a separate experiment, to SMS-SB cells plated at a density of 200,000 cells/ml. The inhibitors were added either once on Day 0 as a bolus (closed circle and square) or daily (open circle or triangle). The number of viable cells was determined daily.

[3] = test system: Nalm-6 cells (CALLA+ human leukemic cell line); assay: Growth of Nalm-6 cells (viable cell counts daily); type: cell-based; settings: for growth of Nalm-6 cells in conditioned media: 50-50 mixture of fresh media and media from a five-day culture, FIG. 5; for cell growth of Nalm-6: nanomolar to micromolar concentrations, FIG. 1 and 3; for growth of Nalm-6 cells: bolus or daily addition, FIG. 4
Description: FIG. 1--Effect of NEP Inhibitors on the Growth of Nalm-6, A2/3, and J558 Cell Lines. The two NEP inhibitors phosphoramidon (1 μM) and carboxyphenylethyl-Phe-β-Ala (20 μM) were added to cells plated in quadruplicate at a density of 100,000 cells/ml in 24 well microtiter plates. The number of viable cells was determined daily. FIG. 3--Correlation of Cell Growth with NEP Activity. Nalm-6 cells were treated with 10 nM phosphoramidon added either as a bolus (circles) or daily (triangles). Cells were initially plated at 200,000 cells/ml. Control cells without added inhibitor are shown as squares. Aliquots were taken daily for determining cell density. To the remainder of the sample was added glutaryl-[…] and NEP activity determined. […] Cells counts were conducted daily. FIG. 5--The Effect of NEP Inhibitors on Nalm-6 Cells Grown in Fresh or Conditioned Media. Nalm-6 cells were grown in fresh media or a 50--50 mixture of fresh media and media taken from a five-day culture. The pH of the conditioned media was adjusted to that of the fresh media. Cell counts were performed daily. The efficacy of endopeptidase inhibitors may be assessed by determining cell numbers and the percent of viable cells (e.g., assessed by trypan blue exclusion) as a function of time in culture in the presence and absence of the endopeptidase inhibitors. In addition the level of neutral endopeptidase activity will be measured and correlated with these parameters. Since the enzyme is on the cell surface its activity can be measured by simply adding substrate to the cell culture. The kinetics of inactivation of purified enzyme can also be assessed. A graphical analysis of the inactivation constant (kobs) versus the inhibitor concentration can be plotted. If the inhibitor binds to the active site of the enzyme this graph should be hyperbolic. The data can then be analyzed in a double reciprocal plot of 1/kobs versus 1/[Inhibitor]. This should yield a straight line from which the dissociation constant for the inhibitor (Ki) and the maximal rate of inactivation k(inact) can be obtained. […] This type of analysis has previously been conducted to characterize the reaction of both phenylglyoxal and N-bromoacetyl-D-Leu-Gly with the enzyme. […] Nalm-6 and Nall-1 are leukemic cell lines generally representative of CALLA+ lymphoblastic leukemias. […] The number of viable cells was determined daily. In FIG. 2, the NEP inhibitors phosphoramidon (PA;10 nM) and carboxyphenylethyl-Phe-β-Ala (10 μM) were added to Nall-1 and, in a separate experiment, to SMS-SB cells plated at a density of 200,000 cells/ml. The inhibitors were added either once on Day 0 as a bolus (closed circle and square) or daily (open circle or triangle). The number of viable cells was determined daily. The inhibition of cell growth by these NEP specific inhibitors appeared somewhat transient and correlated with the recovery of NEP activity. […] Control cells without added inhibitor are shown as squares. Cells were initially plated at a density of 200,000 cells/ml. Aliquots were taken daily for determining cell density. To the remainder of the sample was added glutaryl-[…] and NEP activity was determined.

[4] = target: T1, NEP (CALLA) on intact Nalm-6 cells (Homo sapiens, UniProt P08473); assay: NEP activity of intact cells (glutaryl-Ala-Ala-Phe-MNA substrate); type: cell-based
T1 construct: NEP is a normal constituent of Nalm-6 cells; endogenous in cells; host or cells: Nalm-6 (human CALLA+ leukemic cell line)
Description: FIG. 3--Correlation of Cell Growth with NEP Activity. Nalm-6 cells were treated with 10 nM phosphoramidon added either as a bolus (circles) or daily (triangles). Cells were initially plated at 200,000 cells/ml. Control cells without added inhibitor are shown as squares. Aliquots were taken daily for determining cell density. To the remainder of the sample was added glutaryl-[…] and NEP activity determined. The efficacy of endopeptidase inhibitors may be assessed by determining cell numbers and the percent of viable cells (e.g., assessed by trypan blue exclusion) as a function of time in culture in the presence and absence of the endopeptidase inhibitors. In addition the level of neutral endopeptidase activity will be measured and correlated with these parameters. Since the enzyme is on the cell surface its activity can be measured by simply adding substrate to the cell culture. The kinetics of inactivation of purified enzyme can also be assessed. A graphical analysis of the inactivation constant (kobs) versus the inhibitor concentration can be plotted. […] The data can then be analyzed in a double reciprocal plot of 1/kobs versus 1/[Inhibitor]. […] To the remainder of the sample was added glutaryl-[…] and NEP activity was determined. […] The NEP activity of intact cells in the presence of the inhibitors has been measured during the course of experiments similar to those shown in FIG. 1. […]

L3 myoblast cell line = assay: L3 myoblast cell line, formation of myotubules; type: cell-based
[5] = test system: SMS-SB cells (CALLA- human leukemic cell line); assay: Growth of SMS-SB cells (viable cell counts daily); type: cell-based; settings: 10 μM, bolus or daily addition; FIG. 4
Description: FIG. 2--Effect of NEP Inhibitors on the Growth of Nall-1 and SMS-SB Cell Lines. The NEP inhibitors phosphoramidon (10 nM) and carboxyphenylethyl-Phe-β-Ala(10 μM) were added to cells plated at a density of 200,000 cells/ml. The inhibitors were added either once on Day 0 as a bolus (closed circle and square) or daily (open circle or triangle). The number of viable cells was determined daily. […] Cells counts were conducted daily. […] Nalm-6 and Nall-1 are leukemic cell lines generally representative of CALLA+ lymphoblastic leukemias. […] The number of viable cells was determined daily. In FIG. 2, the NEP inhibitors phosphoramidon (PA;10 nM) and carboxyphenylethyl-Phe-β-Ala (10 μM) were added to Nall-1 and, in a separate experiment, to SMS-SB cells plated at a density of 200,000 cells/ml. The inhibitors were added either once on Day 0 as a bolus (closed circle and square) or daily (open circle or triangle). The number of viable cells was determined daily.

[6] = target: neutral endopeptidase 24.11 (NEP); assay: Competitive inhibition of neutral endopeptidase (NEP); type: biochemical; settings: read-out: Ki (competitive inhibitor)
Description: as §1
NEP: glutaryl-Ala-Ala-Phe-MNA →glutaryl-Ala-Ala + Phe-MNA Aminopeptidase: Phe-MNA →Phe + MNA MNA =4-methoxy-2-naphthylamine

T1 sequence (P08473 whole entry): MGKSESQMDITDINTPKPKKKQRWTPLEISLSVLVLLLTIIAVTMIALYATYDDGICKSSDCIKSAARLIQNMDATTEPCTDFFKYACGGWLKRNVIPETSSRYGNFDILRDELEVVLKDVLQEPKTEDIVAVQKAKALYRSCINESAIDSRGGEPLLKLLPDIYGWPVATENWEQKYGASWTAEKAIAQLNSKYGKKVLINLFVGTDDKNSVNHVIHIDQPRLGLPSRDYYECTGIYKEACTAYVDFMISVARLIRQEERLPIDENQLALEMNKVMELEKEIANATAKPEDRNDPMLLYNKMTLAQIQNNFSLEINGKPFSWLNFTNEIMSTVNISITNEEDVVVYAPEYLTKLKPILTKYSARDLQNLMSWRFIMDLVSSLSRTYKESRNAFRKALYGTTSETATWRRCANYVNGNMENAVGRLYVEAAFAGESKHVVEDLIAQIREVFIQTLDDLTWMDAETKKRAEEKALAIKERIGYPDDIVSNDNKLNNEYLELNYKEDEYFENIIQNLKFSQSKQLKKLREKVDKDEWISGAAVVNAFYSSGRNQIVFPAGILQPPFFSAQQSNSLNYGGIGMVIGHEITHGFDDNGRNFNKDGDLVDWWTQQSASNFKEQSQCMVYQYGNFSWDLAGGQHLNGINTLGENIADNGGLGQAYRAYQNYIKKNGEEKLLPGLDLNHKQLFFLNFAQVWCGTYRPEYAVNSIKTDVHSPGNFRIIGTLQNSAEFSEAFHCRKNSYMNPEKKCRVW

Row | SMILES | irreversible inhibition / affinity labelling of NEP [1] | cell growth of Nall-1 [2] | growth of Nalm-6 cells in conditioned media [3] | cell growth of Nalm-6 [3] | enzyme (NEP) activity in conditioned vs fresh media [4] | growth of CALLA- SMS leukemic cell line [5] | growth of Nalm-6 cells ([3]; 10 μM) | other results
1 | C[C@H](NC(=O)[C@@H](Cc1ccccc1)NC(=O)CBr)C(=O)O [bromoacetyl-D-Phe-Ala] | not an affinity label of NEP |  |  |  |  |  |  | 
2 | O=C(O)CCNC(=O)[C@H](Cc1ccccc1)NC(Cc1ccccc1)C(=O)O (stereo partly drawn) [carboxyphenylethyl-Phe-β-Ala] |  | cell growth was inhibited; also recorded: inhibit cell growth | the cells grow | cell growth was inhibited; also recorded: inhibit cell growth | just as effectively inhibited in the conditioned media as in the fresh media |  |  | 
3 | CC(C)C[C@H](NP(=O)(O)O[C@@H]1O[C@@H](C)[C@H](O)[C@@H](O)[C@H]1O)C(=O)N[C@@H](Cc1c[nH]c2ccccc12)C(=O)O [phosphoramidon] |  | cell growth was inhibited; also recorded: inhibit cell growth | the cells grow | cell growth was inhibited; also recorded: inhibit cell growth | just as effectively inhibited in the conditioned media as in the fresh media |  |  | duration of inhibition of cell growth at higher inhibitor concentration ([3]; 10 μM): growth is inhibited during the entire course of the experiment; growth of Nalm-6 cells in dialyzed conditioned media ([3]; conditioned media dialyzed against fresh media, cut-off 14,000): cell growth was once again inhibited; effect on L3 myoblast cell line (formation of myotubules) (L3 myoblast cell line): unaffected
4 | O=C(O)CNC(=O)C(CS)Cc1ccccc1 (stereo not shown) [thiorphan, HS--CH2 --CH(CH2 --.phi.)--CO--Gly] |  |  |  |  |  | neither thiorphan nor captopril affect the growth | inhibits the growth | 
5 | CC(C)C[C@@H](NC(=O)CBr)C(=O)NCC(=O)O [BADLG, N-bromoacetyl-D-Leu-Gly] (BrAc-[dL]-Gly-OH) | irreversible inhibitor |  |  |  |  |  |  | mol incorporated per mol of enzyme ([1]; irreversible inhibition): 1 mol per mol of enzyme; pKi [6]: 2.30
6 | C[C@H](CS)C(=O)N1CCC[C@H]1C(=O)O [captopril, HS--CH2 --CH(CH3)--CO--Pro] |  |  |  |  |  | neither thiorphan nor captopril affect the growth | without effect | 
